Values joined by “and” are separate entries in the source; they are usually repeats but may differ in a detail not shown here. Equal entries are not always repeated.
How the values were obtained:
[1] = Circulating OEA levels after OEA administration (HPLC/MS); format: in vivo; conditions: rat, plasma, ip; 1 hr after 5 mg per kg i.p., rats; baseline 10.1±1.1
Description: HPLC/MS analyses. Plasma was prepared from blood obtained by cardiac puncture (Giuffrida, et al., Anal. Biochem., 280:87-93 (2000)) and CSF was collected from the cisterna magna using a 27G ½ needle (Precisionglide, USA). FAEs and NAPE were extracted from tissues with methanol/chloroform and fractionated by column chromatography (Giuffrida, et al., “Lipid Second Messengers” (ed. Laychock, S. G. & Rubin, R. P.) 113-133 (CRC Press LLC, Boca Raton, Fla., 1998)). FAEs were quantified by HPLC/MS, using an isotope dilution method (Giuffrida, et al., Anal. Biochem., 280:87-93 (2000)). Individual NAPE species were identified and quantified by HPLC/MS, using an external standard method (Calignano, et al., Nature, 408:96-101 (2000)).
OEA elicits hypophagia at physiologically relevant doses. […] Thus, the concentrations reached by OEA in blood during starvation can be sufficient to elicit notable behavioral responses.

iNOS = test: Transrepression of iNOS expression in mouse jejunum; format: in vivo; conditions: jejunum of C57BL/6J mice; OEA or oleic acid 10, Wy-14643 30 mg kg^−1 i.p.
Description: Tissues were stored in RnaLater™ (Ambion), extracted total RNA with TRIzol™ (Invitrogen) and quantified it with Ribogreen™ (Molecular Probes). cDNA was synthesized by using SuperscriptII RNase H-reverse transcriptase (Invitrogen).
Reverse transcription of total RNA (2 μg) was performed using Oligo(dT)12-18 primer (0.2 μg) for 50 min at 42° C. Real Time Quantitative (RTQ) PCR was conducted using an ABI PRISM 7700 sequence detection system (Applied Biosystems). Primer/probe sets were designed using the Primer Express™ software and gene sequences available from the Genebank™ database. Primers and fluorogenic probes were synthesized by TIB (Adelphia). The primer/probe sequences for the mouse genes were:
RNA levels were normalized by using glyceraldehyde 3-phosphate dehydrogenase (GAPDH) as an internal standard. mRNA levels were measured by generating six-point serial standard curves using mouse total RNA. Estimates of relative mRNA abundance (in arbitrary units) were made by using the CT value (Schmittgen et al., 2000). Relative quantifications of RNAs of interest were made by using the 2^ΔCT formula, in which ΔCT was calculated by subtracting the CT value for GAPDH from the CT value for the gene of interest. This formula was validated for each primer/probe set by using six-point serial standard curves.

[2] = Intracerebroventricular OEA on food intake in 24 h food-deprived rats; format: in vivo, rat; conditions: for food intake 60 min / food intake 120 min / food intake 240 min: 24 h food-deprived rats
Description: (§1) Feeding experiments. Acute experiments. Food intake was measured in 24-h food-deprived rats (Navarro, et al., J. Neurochem., 67:1982-1991 (1996)), administering drugs 15 min before food presentation. Subchronic experiments. Ad libitum fed rats received vehicle injections for three days. On day four, the animals were divided in two equal groups and gave them daily injections of vehicle or OEA (5 mg per kg at 1900 h) for 7 consecutive days, while measuring body weight, food intake and water intake.

[3] = Conditioned taste aversion; format: in vivo, rat; conditions: 20 mg per kg i.p.
Description: Conditioned taste aversion. Rats were water-deprived for 24 h and then accustomed to drink from a graded bottle during a 30-min test period for four days. On day five, water was substituted with a 0.1% saccharin solution and, 30 min later, the animals received injections of vehicle, OEA (20 mg per kg) Or lithium chloride (0.4 M, 7.5 ml per kg). During the following two days, water consumption was recorded over 30-min test periods. The animals were then presented with water or saccharin, and drinking measured.

[4] = molecular target: T1, cannabinoid binding to rat brain membranes (Rattus norvegicus, UniProt P20272); test: Displacement of cannabinoid binding to rat brain membranes; conditions: rat brain membranes in vitro
T1 construct: from tissue; host or cells: rat brain membranes
T1 sequence (P20272 whole entry): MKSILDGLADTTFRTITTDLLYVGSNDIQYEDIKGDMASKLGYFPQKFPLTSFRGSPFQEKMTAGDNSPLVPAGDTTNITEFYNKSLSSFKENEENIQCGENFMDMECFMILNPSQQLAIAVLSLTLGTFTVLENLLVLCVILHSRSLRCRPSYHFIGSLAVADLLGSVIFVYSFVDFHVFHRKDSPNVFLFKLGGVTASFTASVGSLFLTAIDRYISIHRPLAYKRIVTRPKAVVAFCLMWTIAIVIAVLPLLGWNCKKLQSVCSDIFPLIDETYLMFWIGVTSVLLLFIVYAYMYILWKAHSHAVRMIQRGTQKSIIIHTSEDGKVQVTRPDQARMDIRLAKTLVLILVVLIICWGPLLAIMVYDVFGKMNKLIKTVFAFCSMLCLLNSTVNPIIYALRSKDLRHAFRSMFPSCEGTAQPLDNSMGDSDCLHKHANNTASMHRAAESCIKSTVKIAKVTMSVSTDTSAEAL

[5] = Subchronic OEA administration in rats (7 days): food intake, body weight, water intake; format: in vivo, rat; conditions: 5 mg per kg i.p. daily for seven days
Description: as §1
In this example, OEA was subchronically administered to rats.

Hepatocyte = test: [14C]oleate oxidation to ketone bodies in hepatocytes; format: cell-based, rat; conditions: 10 min incubation
Description: OEA-like compounds and modulators can be used to modulate fat metabolism. Such compounds can also be assayed for their effect on fatty acid metabolism. The effect of the candidate compound on fatty acid metabolism can be measured by measurements of fatty acid oxidation in primary cultures of liver cells. Hepatocytes may be used to determine the rate of oleate oxidation to ketone bodies and carbon dioxide. Such cells can be isolated from adult rat liver by enzymatic digestion as described by Beynen et al. in Diabetes 28:828 (1979). Cells typically are cultured in suspension and incubated in Krebs-Henseleit's bicarbonate medium supplemented with bovine serum albumin and glucose as described by Guzman & Geelen, Biochem. J., 287:487 (1992). The protein concentration of the cultured cells can be determined and cells seeded in 2 ml media so that 4-6 mg protein per ml is present in the reaction mixture. […] Protein concentration can be determined using a Lowry assay. The rate of oleate conversion into ketone bodies may be expressed as nmol of oleate oxidized per hour per mg protein and may be determined using liquid scintillation counting. […]

[6] = Food intake in capsaicin-treated (sensory deafferented) rats, Example 2; format: in vivo, rat; conditions: OEA 10 mg per kg i.p.
Description: FAE were dissolved in dimethylsulphoxide (DMSO) and administered in 70% DMSO in sterile saline (acute treatments) Or 5% Tween 80/5% propylenglycol in sterile saline (subchronic treatments) (1 ml per kg, i.p.). Capsaicin was administered in 10% Tween 80/10% ethanol/80% saline; SR141716A, SR144528, CCK-8 and CP-93129 in 5% Tween 80/5% propylenglycol/90% saline (1 ml per kg, i.p.).

[7] = Operant responses for food; format: in vivo, rat; conditions: at a dose substantially higher than those required to produce hypophagia
Description: Operant responses for food. Rats were trained to lever press for food on a fixed ratio 1 (FR1) schedule of reinforcement, while food-restricted at 20 g of chow per rat per day (Rodriguez de Fonseca, et al., Acta Pharmacol. Sin., 20:1109-1114 (1999)). Once stable responding was achieved, the animals were trained to acquire an FR5, time out 2-min schedule of food reinforcement and kept in limited access to food. When a stable baseline was obtained, the animals were used to test the effects of vehicle or OEA (1, 5 or 20 mg per kg) administered 15 min before lever presentation. Test duration was 60 min.

In the case of `CCCCCCCC/C=C\CCCCCCCC(=O)NCCO` [OEA, Z-2-hydroxyethyl octadec-9-enamide], the concentration at 1 hr [1] is reported as 16.1 ± 2.6 nM, the iNOS expression (iNOS) is reported as “significantly decreased” and the “food intake 60 min” value ([2]; OEA 0.4 μg per animal i.c.v.) is reported as 4.8 ± 0.4. For the same compound, the “food intake 120 min” value ([2]; OEA 0.4 μg per animal i.c.v.) was 6.6 ± 0.4, the “food intake 240 min” value ([2]; OEA 0.4 μg per animal i.c.v.) was 8.4 ± 0.4 and the “food intake 60 min” value ([2]; OEA 2 μg per animal i.c.v.) was 4.9 ± 0.4. The “food intake 120 min” value ([2]; OEA 2 μg per animal i.c.v.) was 6.6 ± 0.6, the “food intake 240 min” value ([2]; OEA 2 μg per animal i.c.v.) was 8.7 ± 0.5 and the “food intake 60 min” value ([2]; OEA 10 μg per animal i.c.v.) was 5.9 ± 0.2. The “food intake 120 min” value ([2]; OEA 10 μg per animal i.c.v.) was 8.1 ± 0.4, the “food intake 240 min” value ([2]; OEA 10 μg per animal i.c.v.) was 9.6 ± 0.7 and the “effect on food intake after direct injection into the brain ventricles” value ([2]; i.c.v.) was “ineffective”. For the same compound, the conditioned taste aversion [3] was “little effect”, the “displacement of cannabinoid binding” value [4] was “did not displace” and the cumulative food intake [5] was “small, but significant decrease”. The water intake [5] was “did not affect”, the weight gain [5] was “profound inhibition of weight gain” and the “Stimulatory effect of 10 μM OEA on [14C]oleate oxidation to ketone bodies” value (Hepatocyte) was 21+−6% and 21 ± 6 (n = 4) %. The “feeding response in capsaicin-treated rats” value [6] was “failed to respond” and the “operant responses for food” value [7] was “reduced”.

— patent publication US20050101542A1, “Combination therapy for controlling appetites” (Regents of the University of California, priority 2002, published 2005)
